What was measured:
Format in all cases: cell-based
[1] = molecular target: T1, mouse EP1 receptor (Mus musculus, UniProt P35375); test: Measurement of EP1 agonist activity (intracellular calcium concentration) in EP1-CHO cells; details: for EC50: EP1-CHO cells, intracellular calcium concentration, read-out: Agonist activity on various prostanoid receptors: EC50 value (nmol/L) EP1
T1 construct: expressed in transfected cells; host or cells: CHO cells (EP1-CHO)
T1 sequence (P35375 1-405): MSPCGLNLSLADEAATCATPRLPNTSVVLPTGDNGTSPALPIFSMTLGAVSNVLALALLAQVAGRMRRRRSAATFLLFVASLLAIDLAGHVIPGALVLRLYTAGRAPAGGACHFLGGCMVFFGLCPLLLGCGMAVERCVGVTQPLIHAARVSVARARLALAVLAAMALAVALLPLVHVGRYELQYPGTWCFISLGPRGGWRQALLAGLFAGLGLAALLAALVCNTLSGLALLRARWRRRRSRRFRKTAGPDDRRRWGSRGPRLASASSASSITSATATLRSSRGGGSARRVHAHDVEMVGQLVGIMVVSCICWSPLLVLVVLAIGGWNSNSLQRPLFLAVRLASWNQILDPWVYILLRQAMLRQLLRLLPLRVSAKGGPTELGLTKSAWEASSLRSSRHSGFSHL
Excerpt: (§1) (1-1) Measurement of Agonist Activity on Various Mouse Prostanoid Receptors
(§2) With using CHO cells (FP-CHO, EP1-CHO and IP-CHO, respectively) in which various mouse prostanoid receptors were forcibly expressed, respectively, agonist activity of test compounds on various prostanoid receptors was studied employing an intracellular calcium concentration regarding FP and EP1, and an intracellular cyclic AMP (hereinafter, abbreviated as cAMP) production amount regarding IP, as an index.
(§3) The test compound was dissolved with dimethyl sulfoxide (DMSO) to prepare a 10 mmol/L solution. Regarding the prepared 10 mmol/L solution, upon use, the 10 mmol/L solution was thawed; step wisely-diluted using DMSO; and diluted with a buffer solution for measurement or a buffer solution for measurement 2, which was subjected to an experiment.
(§4) Cells forcibly expressing various mouse prostanoid receptors were standing-cultured at 37° C. in the presence of 5% CO2 with using an α-MEM medium (Sigma) (for culturing FP-CHO and EP1-CHO) containing inactivated (56° C., 30 minutes) 9.8 vol % dialysed-FBS (Invitrogen) and penicillin-streptomycin-glutamine (GIBCO-BRL), or nucleic acid-containing α-MEM (Sigma) (for culturing IP-CHO) containing inactivated (56° C., 30 minutes) 9.8 vol % dialysed-FBS (Invitrogen) and penicillin-streptomycin glutamine (Invitrogen). Subculturing was performed by the following method.
(§5) After collecting cells into a centrifuging tube, cells were centrifuged at 120 g for 3 minutes at room temperature and the supernatant was removed. Cells were suspended in a suitable amount of a medium, and seeded in a culturing flask.
(§6) (1-2) Measurement of FP and EP1 Agonist Activity (Measurement of Intracellular Calcium Concentration)
(§7) Regarding FP-CHO and EP1-CHO, by the same method as that of subculturing, cells were peeled and suspended. Before two days from measurement, cells were seeded at a density of 1.0×10^4 cells/well into a 96-well UV plate, and standing-cultured at 37° C. in the presence of 5% CO2. […] To each well, 100 μL of a medium containing 5 μmol/L fura 2-AM (DOJINDO), 2.5 mmol/L Probenecid (Sigma), 20 μmol/L indometacin (Sigma) and 10 mmol/L HEPES (Invitrogen) was added, and cells were incubated for about 60 minutes in a CO2 incubator. After completion of the incubation, the medium was removed, and cells were washed with a buffer solution for measurement (Hank's balanced salt solution (Nissui Pharmaceutical Co., Ltd., 9.8 g of the present product was dissolved in 1 L distilled water) containing 0.1 or 1 w/v % bovine serum albumin, 2 μmol/L indometacin, 2.5 mmol/L Probenecid and 10 mmol/L HEPES-NaOH (pH 7.4)) twice. To each well, 120 μL of a buffer solution for measurement was added; and cells were incubated in a CO2 incubator for 30 minutes; and then cells were subjected to an experiment.
(§8) The 96-well UV plate was set in a fluorescent spectral photometer (FDSS-3000, Hamamatsu Photonics K.K.), and an intracellular calcium concentration was measured. To perform a reaction, 30 μL of a buffered solution for measurement containing an agonist at a variety of concentrations was added. Measurement of an intracellular calcium concentration was performed by irradiating cells with excited light of 340 nm and 380 nm alternately, with measuring a fluorescent intensity at 500 nm, and obtaining a fluorescent intensity ratio of 2-wavelength excitation.
(§9) With using measured values obtained from the above method, an EC50 value as an index of agonist activity of the compound of the present invention on mouse FP, mouse EP1 and mouse IP receptors was calculated.

[2] = molecular target: T2, mouse FP receptor (Mus musculus, UniProt P43117); test: Measurement of FP agonist activity (intracellular calcium concentration) in FP-CHO cells; details: for EC50: FP-CHO cells, intracellular calcium concentration, read-out: Agonist activity on various prostanoid receptors: EC50 value (nmol/L) FP
T2 construct: expressed in transfected cells; host or cells: CHO cells (FP-CHO)
Excerpt: as §1, §2, §3, §4, §5, §6, §7, §8, §9

[3] = molecular target: T3, mouse IP receptor (Mus musculus, UniProt P43252); test: Measurement of IP agonist activity (cAMP concentration) in IP-CHO cells; details: for EC50: IP-CHO cells, intracellular cAMP production amount, read-out: Agonist activity on various prostanoid receptors: EC50 value (nmol/L) IP
T3 construct: expressed in transfected cells; host or cells: CHO cells (IP-CHO)
Excerpt: as §1, §2, §3, §4, §5
(1-3) Measurement of IP Agonist Activity (Measurement of cAMP Concentration)
Cells were suspended in a suitable amount of a buffer solution for measurement 1 (MEM medium (Invitrogen) containing 0.1 w/v % bovine serum albumin (Sigma) and 2 μmol/L diclofenac (Sigma)), and centrifuged at room temperature for 3 minutes at 500 g, and the supernatant was removed. Cells were suspended in a buffer solution for measurement 2 (MEM medium (Invitrogen) containing 0.1 w/v % bovine serum albumin (Sigma), 2 μmol/L diclofenac (Sigma) and 1 mmol/L 3-isobutyl-1-methylxanthine), and each 25 μL of the suspension was dispensed at a density of 5.0×10^4 cells/well into a 96-well ½ area plate. A buffer solution for measurement 2 (25 μL) containing an agonist at a variety of concentrations was added to perform a reaction at room temperature for 30 minutes. Measurement of a cAMP concentration was performed with using the cAMP HTRF HiRange kit (CIS bio International). According to the two step protocol of the kit manual, each 25 μL of cAMP-D2 and cryptase diluted with a lysis buffer were added, followed by incubation at room temperature for 1 hour. After incubation for 1 hour, time resolved fluorescence at 620 nm and 660 nm in case of beging excited at 340 nm was measured using Analyst GT (Molecular Device), and a ratio (TRF ratio) was obtained, by which a cAMP concentration was calculated from a calibration line.
as §9

T3 sequence (P43252 whole entry): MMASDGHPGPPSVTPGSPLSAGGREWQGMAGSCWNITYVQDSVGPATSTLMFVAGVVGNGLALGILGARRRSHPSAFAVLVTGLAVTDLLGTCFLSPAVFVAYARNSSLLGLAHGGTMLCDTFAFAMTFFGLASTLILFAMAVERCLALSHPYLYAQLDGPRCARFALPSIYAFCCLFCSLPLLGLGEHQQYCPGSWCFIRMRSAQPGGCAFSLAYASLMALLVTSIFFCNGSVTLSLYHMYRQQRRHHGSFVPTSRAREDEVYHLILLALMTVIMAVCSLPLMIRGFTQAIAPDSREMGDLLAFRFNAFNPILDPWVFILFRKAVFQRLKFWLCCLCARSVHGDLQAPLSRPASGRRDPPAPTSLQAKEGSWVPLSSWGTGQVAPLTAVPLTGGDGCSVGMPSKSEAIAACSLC
T2 sequence (P43117 whole entry): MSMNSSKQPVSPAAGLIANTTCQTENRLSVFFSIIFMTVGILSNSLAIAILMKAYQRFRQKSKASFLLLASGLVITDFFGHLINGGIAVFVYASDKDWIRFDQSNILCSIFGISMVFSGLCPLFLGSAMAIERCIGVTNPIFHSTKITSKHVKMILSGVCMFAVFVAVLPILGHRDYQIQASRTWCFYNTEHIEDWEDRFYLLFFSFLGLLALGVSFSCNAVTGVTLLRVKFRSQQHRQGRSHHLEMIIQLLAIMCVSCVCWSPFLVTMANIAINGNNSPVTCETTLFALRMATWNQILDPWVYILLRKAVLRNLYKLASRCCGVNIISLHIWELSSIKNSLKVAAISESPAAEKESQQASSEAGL

| SMILES | EC50 [1] [nmol/L] | agonist activity on an EP1 receptor ([1]; in words, summary of Table 1) | EC50 [2] [nmol/L] | agonist activity on an FP receptor ([2]; in words, summary of Table 1) | EC50 [3] [nmol/L] | agonist activity on an IP receptor ([3]; in words, summary of Table 1) |
| --- | --- | --- | --- | --- | --- | --- |
| O=C(O)CCC[C@H]1CC[C@@H]2[C@@H](C#CC(O)CCc3ccccc3)[C@H](O)C[C@@H]2OC1 (stereo partly drawn) [Example 119, 4-[(3S,5aR,6S,7R,8aS)-7-hydroxy-6-(3-hydroxy-5-phenyl-1-pentyn-1-yl)octahydro-2H-cyclopenta[b]oxepin-3-yl]butanoic acid] | > 10000 | – | 50.8 | – | > 10000 | – |
| O=C(O)CCC[C@H]1CC[C@@H]2[C@@H](C(F)/C=C/COc3ccccc3)[C@H](O)C[C@@H]2OC1 (stereo partly drawn) [Example 123, 4-{(3S,5aR,6R,7R,8aS)-6-[(2E)-1-fluoro-4-phenoxy-2-buten-1-yl]-7-hydroxyoctahydro-2H-cyclopenta[b]oxepin-3-yl}butanoic acid] | > 10000 | – | 99.2 | – | > 10000 | – |
| O=C(O)CCC[C@H]1CC[C@@H]2[C@@H](/C=C/C(O)COCc3ccccc3)[C@H](O)C[C@@H]2OC1 (stereo partly drawn) [Example 132 (3), 4-{(3S,5aR,6R,7R,8aS)-6-[(1E)-4-(benzyloxy)-3-hydroxy-1-buten-1-yl]-7-hydroxyoctahydro-2H-cyclopenta[b]oxepin-3-yl}butanoic acid] | > 10000 | – | 114 | – | > 10000 | – |
| O=C(O)CCC[C@H]1CC[C@@H]2[C@@H](/C=C/C(O)CCC3CCCC3)[C@H](O)C[C@@H]2OC1 (stereo partly drawn) [Example 132 (7), 4-{(3S,5aR,6R,7R,8aS)-6-[(1E)-5-cyclopentyl-3-hydroxy-1-penten-1-yl]-7-hydroxyoctahydro-2H-cyclopenta[b]oxepin-3-yl}butanoic acid] | > 10000 | – | 21.1 | – | > 10000 | – |
| O=C(O)CCC[C@H]1CC[C@H]2[C@H](CC(F)(F)[C@@H]2/C=C/C(O)CCc2ccccc2)OC1 (stereo partly drawn) [Example 139 (2), 4-{(3S,5aR,6R,8aS)-7,7-difluoro-6-[(1E)-3-hydroxy-5-phenyl-1-penten-1-yl]octahydro-2H-cyclopenta[b]oxepin-3-yl}butanoic acid] | > 10000 | – | 39 | – | > 10000 | – |

The next lines start with the values.

| EC50 [1] [nmol/L] | agonist activity on an EP1 receptor ([1]; in words, summary of Table 1) | EC50 [2] [nmol/L] | agonist activity on an FP receptor ([2]; in words, summary of Table 1) | EC50 [3] [nmol/L] | agonist activity on an IP receptor ([3]; in words, summary of Table 1) | SMILES |
| --- | --- | --- | --- | --- | --- | --- |
| 3 | has agonist activity | 1.1 | has agonist activity | 710 | has agonist activity | O=C(O)CCC[C@H]1CC[C@@H]2[C@@H](/C=C/[C@@H](O)COc3ccccc3)[C@H](O)C[C@@H]2O1 [Comparative Compound A, reference compound] |
| > 10000 | – | 9.7 | – | > 10000 | – | O=C(O)CCC[C@H]1CC[C@@H]2[C@@H](CC[C@@H](O)COc3cccc(C(F)(F)F)c3)[C@H](O)C[C@@H]2OC1 [Example 108 (13), 4-[(3S,5aR,6R,7R,8aS)-7-hydroxy-6-{(3R)-3-hydroxy-4-[3-(trifluoromethyl)phenoxy]butyl}octahydro-2H-cyclopenta[b]oxepin-3-yl]butanoic acid] |
| > 10000 | – | 707 | – | > 10000 | – | O=C(O)CCC[C@H]1CC[C@@H]2[C@@H](COC/C=C/c3ccccc3)[C@H](O)C[C@@H]2OC1 [Example 110, 4-[(3S,5aR,6S,7R,8aS)-7-hydroxy-6-({[(2E)-3-phenyl-2-propen-1-yl]oxy}methyl)octahydro-2H-cyclopenta[b]oxepin-3-yl]butanoic acid] |
| > 10000 | – | 509 | – | > 10000 | – | O=C(O)CCC[C@H]1CC[C@@H]2[C@@H](CCOCCc3ccccc3)[C@H](O)C[C@@H]2OC1 [Example 115, 4-{(3S,5aR,6R,7R,8aS)-7-hydroxy-6-[2-(2-phenylethoxy)ethyl]octahydro-2H-cyclopenta[b]oxepin-3-yl}butanoic acid] |
| 9270 | – | 9.8 | – | > 10000 | – | O=C(O)CCC[C@H]1CC[C@@H]2[C@@H](/C=C/C(F)COc3ccccc3)[C@H](O)C[C@@H]2OC1 (stereo partly drawn) [Example 122, 4-{(3S,5aR,6R,7R,8aS)-6-[(1E)-3-fluoro-4-phenoxy-1-buten-1-yl]-7-hydroxyoctahydro-2H-cyclopenta[b]oxepin-3-yl}butanoic acid] |
